Laboratory results as given in publication PMC9926489, “Chemical Optimization of Selective Pseudomonas aeruginosa LasB Elastase Inhibitors and Their Impact on LasB-Mediated Activation of IL-1β in Cellular and Animal Infection Models” (ACS Infectious Diseases, 2023).
Like-named read-outs stand apart in the source and are kept apart here.

Assays:
[1] = target: T1, rabbit angiotensin-converting enzyme (ACE) (Oryctolagus cuniculus, UniProt P12822); test: ACE selectivity assay; format: biochemical
T1 construct: purchased Sigma
T1 sequence (P12822 34-1310): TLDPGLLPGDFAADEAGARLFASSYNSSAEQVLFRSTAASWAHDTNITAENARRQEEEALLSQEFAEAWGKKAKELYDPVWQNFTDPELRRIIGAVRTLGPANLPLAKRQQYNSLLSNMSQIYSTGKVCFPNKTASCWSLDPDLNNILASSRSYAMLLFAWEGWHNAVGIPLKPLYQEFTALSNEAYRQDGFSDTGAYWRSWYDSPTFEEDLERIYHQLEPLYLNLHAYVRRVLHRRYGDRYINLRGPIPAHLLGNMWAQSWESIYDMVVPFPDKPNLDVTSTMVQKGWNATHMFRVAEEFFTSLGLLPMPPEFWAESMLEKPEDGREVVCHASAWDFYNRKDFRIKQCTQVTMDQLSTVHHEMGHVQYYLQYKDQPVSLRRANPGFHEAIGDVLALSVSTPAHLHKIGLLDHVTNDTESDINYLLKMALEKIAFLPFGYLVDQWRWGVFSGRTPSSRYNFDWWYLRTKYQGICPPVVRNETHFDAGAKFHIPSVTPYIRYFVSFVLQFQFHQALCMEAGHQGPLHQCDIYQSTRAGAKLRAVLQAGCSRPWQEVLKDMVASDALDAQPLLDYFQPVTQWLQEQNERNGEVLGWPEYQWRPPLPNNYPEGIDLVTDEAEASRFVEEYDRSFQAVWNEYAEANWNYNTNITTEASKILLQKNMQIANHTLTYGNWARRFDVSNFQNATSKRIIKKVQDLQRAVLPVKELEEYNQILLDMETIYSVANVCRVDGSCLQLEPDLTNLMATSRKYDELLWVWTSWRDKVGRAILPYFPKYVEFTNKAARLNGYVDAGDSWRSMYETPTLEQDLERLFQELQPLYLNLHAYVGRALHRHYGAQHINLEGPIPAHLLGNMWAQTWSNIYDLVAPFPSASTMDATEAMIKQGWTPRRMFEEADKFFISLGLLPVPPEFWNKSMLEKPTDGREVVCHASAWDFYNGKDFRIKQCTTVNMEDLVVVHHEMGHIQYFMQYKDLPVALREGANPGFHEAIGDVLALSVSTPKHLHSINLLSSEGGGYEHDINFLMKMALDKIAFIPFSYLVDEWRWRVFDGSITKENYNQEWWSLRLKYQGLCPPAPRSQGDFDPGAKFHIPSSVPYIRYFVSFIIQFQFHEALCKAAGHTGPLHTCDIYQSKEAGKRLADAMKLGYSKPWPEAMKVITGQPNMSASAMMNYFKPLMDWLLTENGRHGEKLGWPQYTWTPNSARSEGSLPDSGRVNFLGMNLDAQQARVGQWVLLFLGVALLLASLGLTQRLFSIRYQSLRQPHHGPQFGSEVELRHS
Experimental: (§1) Selectivity of compound inhibition was evaluated against other proteases at concentrations between 0.4 and 200 μM. Activity against rabbit angiotensin-converting enzyme (ACE, Sigma) was assessed using 10 μM fluorogenic substrate Abz-Phe-Arg-Lys(Dnp)-P (Enzo Life Sciences) in 100 mM Tris-HCl pH 7, 50 mM NaCl, 10 μM Zn SO4. Activity against human matrix metalloproteases (MMP)-2 and MMP-9 was assessed in 50 mM HEPES pH 7.5, 10 mM CaCl2, 0.01% Triton X-100 using 4 μM fluorogenic substrate Mca-Pro-Leu-Gly-Leu-Dpa-Ala-Arg-NH2 (Enzo Life Sciences). Activity against MMP-1 and MMP-13 was assessed in 25 mM HEPES pH 7.5, 100 mM NaCl, 100 mM CaCl2, 0.0005% Brij using 7.5 μM fluorogenic substrate Mca-Lys-Pro-Leu-Gly-Leu-Dpa-Ala-Arg-NH2 (Sigma) for MMP-1 and 1.25 μM fluorogenic substrate Mca-Pro-Cha-Gly-Nva-His-Ala-Dpa-NH2 (Millipore) for MMP-13. Activity against human neutrophil elastase (HNE, Enzo Life Sciences) was assessed in 100 mM HEPES pH 7.5, 500 mM NaCl, 0.01% of Triton X-100 using 100 μM fluorogenic substrate MeOSuc-AAPV-AMC (Enzo Life Sciences).

MMP-13 = MMP-13 (Homo sapiens, UniProt P45452); test: MMP-13 selectivity assay; format: biochemical; conditions: human MMP-13
Experimental: as §1

MMP-9 = MMP-9 (Homo sapiens, UniProt P14780); test: MMP-9 selectivity assay; format: biochemical; conditions: human MMP-9
Experimental: as §1

[2] = Mouse pharmacokinetics, lung epithelial lining fluid (ELF); format: in vivo; conditions: for ELF concentration (C0) relative to LasB Ki: 10 mg/kg IV; for Kp / C0 / AUC(0-t) / clearance / half-life: female, ICR (CD-1); for Kp: lung epithelial lining fluid (ELF) and plasma, iv, read-out: lung penetration (AUClast ELF/AUClast plasma); for Kp / lung penetration (AUClast plasma/AUClast ELF): 10 mg/kg; for Kp / C0 / AUC(0-t) / clearance / half-life / lung penetration (AUClast plasma/AUClast ELF): single 10 mg/kg IV dose; for C0 / AUC(0-t) / clearance / half-life: lung epithelial lining fluid (ELF), epithelial lining fluid; for AUC(0-t): read-out: ELF AUClast; for clearance: read-out: ELF CL; for half-life: read-out: ELF t1/2 (converted)
Experimental: The PK parameters of compounds 12 and 16 were investigated in both plasma and lung epithelial lining fluid (ELF) after intravenous (IV) administration of compounds at 10 mg/kg in mice (Figure 4 and Table 5). […] Accordingly, these levels of lung penetration (9.5 and 5.2%, respectively) warranted the evaluation of the compounds in an animal model of lung infection using IV dosing.
Unrestrained, nonanesthetized mice (Female ICR (CD-1); Age 5–6 weeks; Size 22 ± 2 g; specific pathogen-free (SPF)) were injected IV with test article formulations via the tail vein. Animals were sacrificed by cardiac puncture under CO2 euthanasia at 0.08, 0.25, 1, 2, 4, 8, and 24 h post dosing. Blood was drawn into tubes coated with EDTA-K3, mixed gently and plasma was then harvested and kept frozen at −70 °C until further processing. To collect […] (BALF), 0.5 mL of PBS was administered once through a tracheal cannula after which about 0.2 to 0.3 mL of BALF was obtained. The BALF was kept on ice and centrifuged within 1 h of collection and the supernatant was harvested and kept frozen at −70 °C. Plasma and BALF samples were analyzed by LC-MS/MS (AB SCIEX API 3000 mass spectrometer). The apparent ELF volume of each BALF sample was estimated using urea as an endogenous marker of the ELF dilution. The urea concentrations in BALF and plasma samples were determined with the QuantiChrom Urea Assay Kit (DIUR-100) (BioAssay Systems) following the manufacturer’s protocol. For each BALF sample, the drug concentration in ELF was calculated as follows: drug concentrationELF = drug concentrationBALF × (urea concentrationplasma/urea concentrationBALF). The PK parameters of each compound after IV dosing (t1/2, C0, AUClast, and CL) were obtained from the noncompartmental analysis (NCA) of the plasma data using WinNonlin.

Sequence of MMP-9 (P14780 94-707): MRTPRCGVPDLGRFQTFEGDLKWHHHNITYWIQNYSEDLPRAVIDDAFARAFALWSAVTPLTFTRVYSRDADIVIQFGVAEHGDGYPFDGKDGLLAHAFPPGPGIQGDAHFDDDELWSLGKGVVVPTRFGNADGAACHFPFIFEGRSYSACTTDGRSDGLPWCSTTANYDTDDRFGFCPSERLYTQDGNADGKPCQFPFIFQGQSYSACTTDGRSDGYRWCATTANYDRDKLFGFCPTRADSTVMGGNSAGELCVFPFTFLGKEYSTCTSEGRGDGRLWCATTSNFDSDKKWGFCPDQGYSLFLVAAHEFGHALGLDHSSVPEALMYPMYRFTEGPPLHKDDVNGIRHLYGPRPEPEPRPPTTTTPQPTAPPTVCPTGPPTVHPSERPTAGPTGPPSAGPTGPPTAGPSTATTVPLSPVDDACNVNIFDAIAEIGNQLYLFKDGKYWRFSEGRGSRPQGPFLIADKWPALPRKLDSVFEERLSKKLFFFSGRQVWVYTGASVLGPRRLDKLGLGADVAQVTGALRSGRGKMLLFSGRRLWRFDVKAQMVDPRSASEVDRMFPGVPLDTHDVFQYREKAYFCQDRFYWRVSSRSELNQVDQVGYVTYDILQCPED

Which IC50 [1] does the source give for `COc1cc2sc(CNC(=O)C3(CC(=O)O)Cc4cc(F)c(F)cc4C3)nc2cc1OCCC[N+](C)(CCO)CCO` [Compound 16] here?
The IC50 was over 200 µM.

What about the IC50 (MMP-13) of the same molecule?
Its IC50 is over 100 µM.

What about the IC50 (MMP-9) of the same molecule?
The IC50 was over 200 µM.

What about the “ELF concentration (C0) relative to LasB Ki” value [2] of the same molecule?
Its value is “over 100 fold”.

And the Kp [2]?
The Kp was 0.052.

And the C0 [2]?
Its C0 is 2700 ng/mL.

What about the AUC(0-t) [2] of the same molecule?
The AUC(0-t) was 27000 ng·h/mL.

And the clearance [2]?
Its clearance is 5.2 mL/min/kg.

And the half-life [2]?
Its half-life is 9.5 h.

What about the “lung penetration (AUClast plasma/AUClast ELF)” value [2] of the same molecule?
Its value is 5.22%.

What does the source list for `COc1cc2sc(CNC(=O)C3(CC(=O)O)Cc4ccccc4C3)nc2cc1OCCC[N+](C)(C)C` [Compound 12]?
IC50 ([1]; rabbit ACE, read-out: selectivity IC50, ACE): > 200 µM; IC50 (MMP-13): > 100 µM; IC50 (MMP-9): > 200 µM; ELF concentration (C0) relative to LasB Ki [2]: over 100 fold; Kp [2]: 0.095; C0 [2]: 2700 ng/mL; AUC(0-t) [2]: 57700 ng·h/mL; clearance [2]: 1.5 mL/min/kg; half-life [2]: 25.8 h; lung penetration (AUClast plasma/AUClast ELF) [2]: 9.54%
